What was measured:
[1] = Comparative example 26: highly polar photocatalysts in TPU films, 24 h immersion, film absorption before/after leaching; assay type: physicochemical; settings: 30 min impregnation, 20h airing, immersion in distilled water 24h (procedure A), film absorption maximum before/after
Method: Es wurden TPU Folien eingesetzt und mit Imprägnierlösungen enthaltend die folgenden Farbstoffe behandelt. Nach 30 min Einwirkzeit wurden homogen gefärbte Folien erhalten.
Die Ablüftzeit nach Behandlung betrug 20h.
Anschließend wurde ein Belastungstest Immersion mit destilliertem Wasser über 24h durchgeführt (siehe oben beschriebenes Verfahren A) ). Die Folien wurden durch Absorptionsspektroskopie direkt vermessen und die Maximum der Absorption vor/nach Auswaschen verglichen. Es ergaben sich folgende relative Werte, die auf einen starken Austrag der Photokatalysatoren schließen lassen. Die Ergebnisse sind in der Tabelle 63 dargestellt. Tabelle 63: Einbindung von Photokatalysatoren in Kunsttofffolien

[2] = Incorporation of photocatalysts into TPU films versus process time, absorption spectroscopy against blank film (Beispiele 7a-9b); assay type: physicochemical; settings: TPU Folie, Rezeptur 1; Beispiel 8a, Tabelle 44
Method: Im nächsten Schritt wurde die Verwendbarkeit der verschiedene Photokatalysatorklassen, ausgewählt aus Phenalen-1-on-Derivaten, Curcumin-Derivaten und Porphycen-Derivaten, mit unterschiedlichen Eigenschaften - von neutral unpolar bis ionisch polar - auf Ihre Verwendbarkeit und Wirkung im Verfahren untersucht.
Zur Beurteilung der optimalen Prozesszeit bei Einsatz der Photokatalysatoren, wurden TPU Folienstücke nach Beschreibung in Beispiel 4 zu je 1, 2, 5 und 10 min in den Imprägnierlösungen behandelt, gegebenenfalls auch 30 und 60 min bei undeutlichen Ergebnissen.
Als Basisformulierung wurde Rezeptur 1 nach Beispiel 2 verwendet.
Nach der angegebenen Prozesszeit wurden die Folie entnommen, mit Wasser gewaschen und für 1h bei 40°C getrocknet/abgelüftet.
Die Folien wurden durch Absorptionsspektroskopie gegen ein Blank-Folienstück direkt vermessen, beim Maximum der Absorption des Photokatalysators. Dabei ergaben sich in Abhängigkeit der Prozesszeit folgende Werte, die in den Tabellen 40 bis

[3] = Two-component system (kit of parts): impregnation of TPU films, visual colouring and resistance to rubbing/washing (Beispiel 6a/6b); assay type: physicochemical; settings: TPU Folien; for Abreiben / Auswaschen der Färbung: feuchter Schwamm, Wasser
Description: Um eine Mehrkomponenten-System bereitzustellen, bei dem vorzugsweise flüchtigere Hilfskomponenten, die gegebenenfalls regelmäßiger im Prozess ergänzt werden müssen, in einer separaten Komponente bereitgestellt werden können, wurde zunächst folgendes 2K-System getestet.
Grundkomponente (A): Eine Mischung aus 40,0% w/w Aceton, 30,0% w/w Isopropanol und […] w/w Wasser wurden homogen vermengt. Die Mischung war dicht verschlossen > 12 Monate bei Raumtemperatur lagerbar.
Zusatzkomponente (B): Eine Mischung aus 3,0% w/w Phenoxyethanol, 3,0% w/w EDTA und 0,1 bis 2,0 % Photokatalysator in Wasser wurden homogen verrührt. Die Mischung war dicht verschlossen in dunklen Flaschen > 6 Monate bei Raumtemperatur lagerbar.
Beide Lösungen wurden vor dem Prozess zu gleichen Teilen gemischt, gefolgt von einer 1:5 Verdünnung mit Wasser. Nach guter Durchmischung war die Lösung gebrauchsfertig.
Bei F-64a und F-73 war eine schwache Gelb- bzw.
Grundkomponente (A) enthielt eine Mischung aus 30,0% w/w Dimethylsuccinat, 33,0% w/w 1,2-Propandiol, 12,0% w/w Tween 20 und 25,0 % Wasser.
Zusatzkomponente (B) enthielt eine Mischung aus 2,0 Gew.-% Phenoxyethanol, 2,0 Gew.-% EDTA und 0,1 Gew.-% bis 1,6 Gew.-% Photokatalysator, jeweils bezogen auf das Gesamtgewicht der Zusatzkomponente (B), wobei die entsprechenden Bestandteile in Wasser gelöst wurden und anschließend homogen verrührt wurden.
Die Komponenten wurden vor Gebrauch im Verhältnis A zu B 2:1 gemischt, gefolgt von einer 1:1 Verdünnung mit Wasser. Nach guter Durchmischung war die Lösung gebrauchsfertig.

[4] = tested on: S.aureus ATCC 6538; assay: Antibacterial activity of impregnated films, modified ISO 22196 with illumination (Beispiele 11-16, 25); assay type: cell-based; settings: Beispiel 14; TPU film; Rezeptur 1 (nach Beispiel 1); 1 mM photocatalyst in impregnation solution; light 20mW/cm2 10min
[5] = Comparative examples 23-25: impregnation of unsuitable plastics or with a fluorescent dye, visual evaluation; assay type: physicochemical; settings: 0,2 mm starke Polycarbonatfolien; 60 min Einwirkzeit
Method: Die Farbstoffkonzentration in der Imprägnierlösung betrug jeweils 1 mM bei Phenalen-1-on- und Curcuminderivaten, 0,1 mM bei Prophycenderivaten.
Es wurden 0,2 mm starke Polycarbonatfolien eingesetzt und mit Imprägnierlösungen enthaltend die Photokatalysatoren F-24b, F-64a oder F-73 behandelt.
Es wurden TPU Folien eingesetzt und mit einer Imprägnierlösung enthaltend den Farbstoff 2-Chloro-6-(3-hydroxypropylamino)-1-phenalenon (CAS 113722-81-9) behandelt.

Molecule: 2,7,12-Tris(pyridinio-p-tolyl)-17-(p-(methoxymethyl)phenyl) porphycen bromid
- Verlust durch Auswaschen [1]: > 66%

Molecule: NCCOc1ccc(/C=C/C(=O)CC(=O)/C=C/c2ccc(OCCN)cc2)cc1 [F-64a]
- Abs. 10 min [2]: 0,55
- Imprägnierung / Färbung der Folie ([3]; 2K-System Beispiel 6a (Aceton/Isopropanol)): schwache Gelb- bzw. Blaufärbung der Folie
- Abreiben / Auswaschen der Färbung ([3]; 2K-System Beispiel 6a): weder mit einem feuchten Schwamm abreiben noch mit Wasser auswaschen ließ
- Imprägnierung / Färbung der Folie ([3]; 2K-System Beispiel 6b (Dimethylsuccinat/1,2-Propandiol/Tween 20)): schwache Gelb- bzw. Blaufärbung der Folie
- Abreiben / Auswaschen der Färbung ([3]; 2K-System Beispiel 6b): weder mit einem feuchten Schwamm abreiben noch mit Wasser auswaschen ließ
- Log10 Reduktion Hauptprobe [4]: 2,6 ± 1,7 log10
- Verfärbung [5]: keine Verfärbung

Molecule: O=C1C=Cc2cccc3cccc1c23 [Phenalen-1-on (Verb.Bsp. 48)]
- Verlust durch Auswaschen [1]: > 50%

Molecule: Cl.Cl.Cl.Cl.Cl.Cl.NCCOc1cc(/C=C/C(=O)CC(=O)/C=C/c2cc(OCCN)c(OCCN)c(OCCN)c2)cc(OCCN)c1OCCN [SACUR-05]
- Verlust durch Auswaschen [1]: > 70%
